Source: patent publication US20240269139A1, “COMPOUNDS FOR TARGETED PROTEIN DEGRADATION OF KINASES” (DANA-FARBER CANCER INSTITUTE, INC., priority 2020, published 2024)
Like-named read-outs stand apart in the source and are kept apart here.

Assays:
Assay type in all cases: cell-based
[1] = system: protein kinases (human kinome); settings: for logFC MAPK14: experiment wp047
From the text: (§1) Although development of targeted protein degraders requires a POI binder, among already-liganded proteins such as kinases, it was hypothesized that different targets would have a different propensity for current approaches to degrader-mediated destruction, which was termed ‘degradability’. […] It was rationalized that the probability of identifying the same kinase as a false positive in multiple treatments is low, therefore this analysis served to also assess the robustness of our data and subsequent interpretations. […] Overall, 62 protein kinases were degraded in more than 10 independent treatments, and remarkably, 9 of these (CDK4, AURKA, FER, WEE1, BLK. LIMK2, CDK6, GAK, LIMK1) were each degraded in at least 40 of the 154 independent treatments, emphasizing their predisposition to induced degradation (FIG. 1G; Appendix I).
(§2) Next, the frequency of degradation assessment was corrected for over-representation of molecules in the full dataset by omitting replicate profiling of compounds under different experimental conditions, to remove any bias. […] Unsurprisingly, the top degradable kinases mirror those from the previous analysis (CDK4, AURKA, FER, WEE1, BLK), confirming that in sufficiently large datasets, even with over-representation of certain molecules, frequency of degradation is a good measure of general tractability.

[2] = target: protein kinases (human kinome) (Homo sapiens, UniProt Q16539)
From the text: as §1, §2

[3] = target: protein kinases (human kinome) (Homo sapiens, UniProt Q00534); settings: for logFC CDK6: CDK6 (Q00534), direction down; for logFC of CDK6 (Q00534): down
From the text: as §1, §2

[4] = target: protein kinases (human kinome) (Homo sapiens, UniProt Q15118); settings: PDK1 Q15118; experiment wp084
From the text: as §1, §2

[5] = target: protein kinases (human kinome) (Homo sapiens, UniProt P11802)
From the text: as §1, §2

[6] = target: protein kinases (human kinome) (Homo sapiens, UniProt P30291); settings: for logFC of WEE1: WEE1 P30291-1
From the text: as §1, §2

[7] = target: T1, protein kinases (human kinome) (Homo sapiens, UniProt O14965)
T1 sequence (O14965 1-403): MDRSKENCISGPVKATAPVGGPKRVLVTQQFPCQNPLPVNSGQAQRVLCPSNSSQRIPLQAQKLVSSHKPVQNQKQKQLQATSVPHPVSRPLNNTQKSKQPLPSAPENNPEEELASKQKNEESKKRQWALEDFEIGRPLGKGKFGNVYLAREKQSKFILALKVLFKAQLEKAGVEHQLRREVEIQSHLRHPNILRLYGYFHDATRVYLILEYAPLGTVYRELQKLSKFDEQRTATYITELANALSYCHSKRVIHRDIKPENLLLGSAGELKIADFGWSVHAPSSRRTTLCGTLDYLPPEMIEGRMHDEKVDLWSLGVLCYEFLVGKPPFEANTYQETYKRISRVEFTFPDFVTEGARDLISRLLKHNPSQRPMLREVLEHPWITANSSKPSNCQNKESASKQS
From the text: as §1, §2

[8] = target: protein kinases (human kinome) (Homo sapiens, UniProt Q2M2I8); settings: experiment wp134
From the text: as §1, §2

[9] = target: T2, protein kinases (human kinome) (Homo sapiens, UniProt Q9UEE5); settings: STK17A Q9UEE5; experiment wp149
T2 sequence (Q9UEE5 1-414): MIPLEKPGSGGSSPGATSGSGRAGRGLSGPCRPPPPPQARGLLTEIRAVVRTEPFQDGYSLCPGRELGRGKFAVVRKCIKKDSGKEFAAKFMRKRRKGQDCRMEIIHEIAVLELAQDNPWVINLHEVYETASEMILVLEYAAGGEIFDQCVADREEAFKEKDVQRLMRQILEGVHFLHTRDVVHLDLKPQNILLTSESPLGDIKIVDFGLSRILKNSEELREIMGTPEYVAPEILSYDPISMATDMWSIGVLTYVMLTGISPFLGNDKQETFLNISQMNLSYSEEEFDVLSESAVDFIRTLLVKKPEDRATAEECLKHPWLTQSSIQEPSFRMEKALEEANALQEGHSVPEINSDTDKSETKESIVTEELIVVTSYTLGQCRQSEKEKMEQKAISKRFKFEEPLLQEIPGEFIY
From the text: as §1, §2

[10] = target: protein kinases (human kinome) (Homo sapiens, UniProt P53671); settings: for logFC of LIMK2: LIMK2 P53671
From the text: as §1, §2

[11] = target: protein kinases (human kinome) (Homo sapiens, UniProt P51451); settings: for logFC of BLK (P51451): down
From the text: as §1, §2

[12] = target: protein kinases (human kinome) (Homo sapiens, UniProt P53667); settings: LIMK1 (P53667-1), experiment wp149
From the text: as §1, §2

[13] = target: protein kinases (human kinome) (Homo sapiens, UniProt P41240); settings: experiment wp045
From the text: as §1, §2

[14] = target: protein kinases (human kinome) (Homo sapiens, UniProt P42684)
From the text: as §1, §2

[15] = target: T3, protein kinases (human kinome) (Homo sapiens, UniProt Q08881); settings: experiment wp134
T3 sequence (Q08881 1-620): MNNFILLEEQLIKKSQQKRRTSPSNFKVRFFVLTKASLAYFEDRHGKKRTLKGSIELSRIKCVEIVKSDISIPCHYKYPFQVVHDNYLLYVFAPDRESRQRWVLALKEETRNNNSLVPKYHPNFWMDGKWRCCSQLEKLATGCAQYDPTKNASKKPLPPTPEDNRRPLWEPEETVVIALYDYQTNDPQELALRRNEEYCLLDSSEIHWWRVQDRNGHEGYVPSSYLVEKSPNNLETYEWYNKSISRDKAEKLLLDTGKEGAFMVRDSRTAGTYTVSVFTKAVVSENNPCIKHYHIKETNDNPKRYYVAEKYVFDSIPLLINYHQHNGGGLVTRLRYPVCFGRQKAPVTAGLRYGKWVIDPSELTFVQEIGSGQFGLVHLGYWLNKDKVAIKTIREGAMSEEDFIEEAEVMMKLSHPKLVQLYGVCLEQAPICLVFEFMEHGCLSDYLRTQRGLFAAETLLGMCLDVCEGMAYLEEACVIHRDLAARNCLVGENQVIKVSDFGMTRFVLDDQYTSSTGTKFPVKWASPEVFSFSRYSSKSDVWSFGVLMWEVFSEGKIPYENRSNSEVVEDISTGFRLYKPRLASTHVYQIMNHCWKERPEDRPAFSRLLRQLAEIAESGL
From the text: as §1, §2

[16] = AURKB Q96GD4-5, experiment wp080

Sequence of protein kinases (human kinome) (Homo sapiens, UniProt P51451) (P51451 whole entry): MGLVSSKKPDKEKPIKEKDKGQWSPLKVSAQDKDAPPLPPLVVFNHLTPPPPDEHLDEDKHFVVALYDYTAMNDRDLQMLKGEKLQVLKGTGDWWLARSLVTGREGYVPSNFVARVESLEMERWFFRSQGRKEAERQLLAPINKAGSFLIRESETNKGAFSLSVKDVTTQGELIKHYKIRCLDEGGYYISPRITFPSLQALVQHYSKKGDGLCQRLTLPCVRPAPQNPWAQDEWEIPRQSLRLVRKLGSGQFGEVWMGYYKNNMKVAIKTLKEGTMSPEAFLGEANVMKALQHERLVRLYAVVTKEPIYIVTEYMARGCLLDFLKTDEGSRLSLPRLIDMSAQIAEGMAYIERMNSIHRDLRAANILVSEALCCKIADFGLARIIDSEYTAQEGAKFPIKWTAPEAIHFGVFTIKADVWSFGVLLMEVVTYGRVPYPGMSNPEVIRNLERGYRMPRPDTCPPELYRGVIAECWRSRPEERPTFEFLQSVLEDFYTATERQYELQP
Sequence of protein kinases (human kinome) (Homo sapiens, UniProt P11802) (P11802 whole entry): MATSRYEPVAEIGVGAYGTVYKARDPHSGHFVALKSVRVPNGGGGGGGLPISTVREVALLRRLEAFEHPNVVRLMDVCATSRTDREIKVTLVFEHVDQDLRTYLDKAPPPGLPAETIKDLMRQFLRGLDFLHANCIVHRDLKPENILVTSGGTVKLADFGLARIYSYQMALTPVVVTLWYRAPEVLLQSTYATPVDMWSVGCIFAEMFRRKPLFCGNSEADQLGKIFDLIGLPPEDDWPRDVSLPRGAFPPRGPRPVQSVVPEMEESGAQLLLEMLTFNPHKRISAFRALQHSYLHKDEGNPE
Sequence of protein kinases (human kinome) (Homo sapiens, UniProt P53671) (P53671 whole entry): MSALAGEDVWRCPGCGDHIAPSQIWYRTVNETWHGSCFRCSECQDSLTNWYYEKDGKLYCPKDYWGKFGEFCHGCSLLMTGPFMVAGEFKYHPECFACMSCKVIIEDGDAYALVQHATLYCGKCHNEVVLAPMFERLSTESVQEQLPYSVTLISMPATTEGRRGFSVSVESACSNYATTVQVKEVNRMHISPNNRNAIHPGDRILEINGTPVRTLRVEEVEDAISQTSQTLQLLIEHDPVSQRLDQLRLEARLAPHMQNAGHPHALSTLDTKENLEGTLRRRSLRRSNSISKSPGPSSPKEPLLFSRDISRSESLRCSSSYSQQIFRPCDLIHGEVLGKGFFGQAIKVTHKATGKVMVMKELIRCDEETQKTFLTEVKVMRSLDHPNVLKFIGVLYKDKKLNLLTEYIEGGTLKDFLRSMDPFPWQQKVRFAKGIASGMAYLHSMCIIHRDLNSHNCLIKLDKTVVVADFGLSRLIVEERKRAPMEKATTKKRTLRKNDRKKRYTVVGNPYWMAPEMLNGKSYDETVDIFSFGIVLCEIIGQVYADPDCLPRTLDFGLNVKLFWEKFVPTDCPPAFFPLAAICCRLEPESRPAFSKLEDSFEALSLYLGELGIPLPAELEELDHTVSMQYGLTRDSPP
Sequence of protein kinases (human kinome) (Homo sapiens, UniProt Q00534) (Q00534 whole entry): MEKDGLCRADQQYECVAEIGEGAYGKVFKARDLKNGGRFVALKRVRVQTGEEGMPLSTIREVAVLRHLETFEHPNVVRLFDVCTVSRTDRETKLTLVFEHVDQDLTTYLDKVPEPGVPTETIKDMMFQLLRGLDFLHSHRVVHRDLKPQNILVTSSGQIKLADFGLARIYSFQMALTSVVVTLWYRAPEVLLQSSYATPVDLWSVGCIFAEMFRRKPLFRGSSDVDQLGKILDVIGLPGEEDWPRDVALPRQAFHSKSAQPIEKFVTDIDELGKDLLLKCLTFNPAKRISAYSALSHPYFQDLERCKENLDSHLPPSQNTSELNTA
Sequence of protein kinases (human kinome) (Homo sapiens, UniProt P30291) (P30291 whole entry): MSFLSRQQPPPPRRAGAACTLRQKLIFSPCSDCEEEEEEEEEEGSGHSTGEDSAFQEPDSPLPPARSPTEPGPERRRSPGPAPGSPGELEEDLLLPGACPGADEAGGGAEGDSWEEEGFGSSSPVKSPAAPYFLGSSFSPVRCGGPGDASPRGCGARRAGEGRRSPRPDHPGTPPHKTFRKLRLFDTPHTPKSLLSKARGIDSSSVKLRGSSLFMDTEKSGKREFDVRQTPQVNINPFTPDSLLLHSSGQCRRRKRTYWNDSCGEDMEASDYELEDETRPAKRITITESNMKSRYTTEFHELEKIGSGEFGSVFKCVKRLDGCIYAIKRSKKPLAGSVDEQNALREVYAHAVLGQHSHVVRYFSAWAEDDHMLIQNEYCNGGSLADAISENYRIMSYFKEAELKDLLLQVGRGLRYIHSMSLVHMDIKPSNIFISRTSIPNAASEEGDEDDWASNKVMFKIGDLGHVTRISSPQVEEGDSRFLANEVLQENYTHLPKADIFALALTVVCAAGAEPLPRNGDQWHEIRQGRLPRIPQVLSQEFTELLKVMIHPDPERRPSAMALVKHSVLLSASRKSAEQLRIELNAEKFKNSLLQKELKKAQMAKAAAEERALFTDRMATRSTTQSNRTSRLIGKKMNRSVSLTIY
Sequence of protein kinases (human kinome) (Homo sapiens, UniProt Q16539) (Q16539 whole entry): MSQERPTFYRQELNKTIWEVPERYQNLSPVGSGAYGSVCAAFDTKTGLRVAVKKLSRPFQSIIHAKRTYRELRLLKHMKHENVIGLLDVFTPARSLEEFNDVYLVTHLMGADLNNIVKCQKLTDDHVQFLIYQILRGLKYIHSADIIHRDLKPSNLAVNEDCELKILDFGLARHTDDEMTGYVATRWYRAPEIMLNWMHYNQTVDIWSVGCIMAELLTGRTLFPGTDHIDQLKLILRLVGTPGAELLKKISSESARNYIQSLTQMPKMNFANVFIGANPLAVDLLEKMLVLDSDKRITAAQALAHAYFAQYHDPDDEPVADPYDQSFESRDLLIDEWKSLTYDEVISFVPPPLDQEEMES
Sequence of protein kinases (human kinome) (Homo sapiens, UniProt Q15118) (Q15118 29-436): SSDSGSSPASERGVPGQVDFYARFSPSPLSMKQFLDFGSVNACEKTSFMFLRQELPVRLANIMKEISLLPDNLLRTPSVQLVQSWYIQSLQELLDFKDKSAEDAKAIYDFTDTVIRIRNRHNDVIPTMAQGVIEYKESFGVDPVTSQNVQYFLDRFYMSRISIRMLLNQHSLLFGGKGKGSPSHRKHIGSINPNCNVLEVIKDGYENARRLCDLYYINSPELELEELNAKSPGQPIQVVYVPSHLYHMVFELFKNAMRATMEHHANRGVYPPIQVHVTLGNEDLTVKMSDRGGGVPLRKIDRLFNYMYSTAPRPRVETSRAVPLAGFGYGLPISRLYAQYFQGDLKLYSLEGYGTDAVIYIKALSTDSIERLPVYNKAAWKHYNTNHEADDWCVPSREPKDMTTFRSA
Sequence of protein kinases (human kinome) (Homo sapiens, UniProt Q2M2I8) (Q2M2I8 whole entry): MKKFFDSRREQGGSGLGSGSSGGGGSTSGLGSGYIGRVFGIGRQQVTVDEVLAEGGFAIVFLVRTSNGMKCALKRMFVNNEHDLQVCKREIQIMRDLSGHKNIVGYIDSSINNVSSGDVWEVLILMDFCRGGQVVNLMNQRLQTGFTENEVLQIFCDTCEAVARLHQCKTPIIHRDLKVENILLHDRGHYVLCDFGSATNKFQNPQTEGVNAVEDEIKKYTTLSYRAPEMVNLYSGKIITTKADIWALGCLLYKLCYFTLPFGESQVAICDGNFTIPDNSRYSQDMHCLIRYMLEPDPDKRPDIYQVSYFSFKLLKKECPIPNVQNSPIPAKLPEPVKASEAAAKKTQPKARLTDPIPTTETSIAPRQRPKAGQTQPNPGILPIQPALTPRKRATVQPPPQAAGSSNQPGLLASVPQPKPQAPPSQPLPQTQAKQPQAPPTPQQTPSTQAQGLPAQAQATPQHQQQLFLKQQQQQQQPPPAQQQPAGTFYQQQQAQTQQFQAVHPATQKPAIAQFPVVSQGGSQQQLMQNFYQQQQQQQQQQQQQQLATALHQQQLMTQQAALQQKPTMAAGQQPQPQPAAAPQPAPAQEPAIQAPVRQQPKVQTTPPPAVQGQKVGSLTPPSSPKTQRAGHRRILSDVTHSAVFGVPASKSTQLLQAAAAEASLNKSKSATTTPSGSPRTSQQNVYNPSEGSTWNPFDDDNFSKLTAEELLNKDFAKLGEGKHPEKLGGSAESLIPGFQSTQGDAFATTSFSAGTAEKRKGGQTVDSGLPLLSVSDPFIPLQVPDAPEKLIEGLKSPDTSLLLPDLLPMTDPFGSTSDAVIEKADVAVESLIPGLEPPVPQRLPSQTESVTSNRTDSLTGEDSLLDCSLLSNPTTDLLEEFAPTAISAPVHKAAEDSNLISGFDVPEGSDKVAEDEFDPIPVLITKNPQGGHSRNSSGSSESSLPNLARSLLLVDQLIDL
Sequence of protein kinases (human kinome) (Homo sapiens, UniProt P41240) (P41240 whole entry): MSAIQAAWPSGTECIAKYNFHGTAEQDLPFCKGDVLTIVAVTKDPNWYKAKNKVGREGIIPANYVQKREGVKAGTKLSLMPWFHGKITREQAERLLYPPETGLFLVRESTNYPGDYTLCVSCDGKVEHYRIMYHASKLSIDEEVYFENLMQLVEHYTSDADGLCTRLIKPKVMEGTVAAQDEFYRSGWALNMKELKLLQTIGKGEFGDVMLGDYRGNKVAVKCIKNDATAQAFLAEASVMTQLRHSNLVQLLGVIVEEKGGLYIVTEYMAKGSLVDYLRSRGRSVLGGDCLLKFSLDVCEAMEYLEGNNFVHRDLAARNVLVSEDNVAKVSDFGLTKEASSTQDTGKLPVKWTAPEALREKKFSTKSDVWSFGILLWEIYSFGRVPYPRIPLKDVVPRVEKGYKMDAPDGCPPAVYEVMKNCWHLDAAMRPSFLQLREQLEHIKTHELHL

`Cc1ccc(NC(=O)c2cccc(C(C)(C)C#N)c2)cc1Nc1ccc2ncn(CCOCCOCCC(=O)N[C@H](C(=O)N3C[C@H](O)C[C@H]3C(=O)NCc3ccc(-c4scnc4C)cc3)C(C)(C)C)c(=O)c2c1` [DD.02.198] was tested, and the “logFC MAPK14” value ([1]; MAPK14, accession Q16539-2, direction of change down) was −0.617, the “logFC MAPK14” value ([1]; MAPK14 Q16539-2) was −0.617 and the logFC ([2]; MAPK14 (Q16539) protein abundance, degrader vs DMSO, down) was −1.387. The “logFC MAPK14” value ([2]; MAPK14, accession Q16539, experiment wp047, direction of change down) was −1.387.

`CC(=O)c1c(C)c2cnc(Nc3ccc(N4CCN(CCCCNC(=O)COc5cccc6c5C(=O)N(C5CCC(=O)NC5=O)C6=O)CC4)cn3)nc2n(C2CCCC2)c1=O` (stereo not drawn) [BSJ.03.204] was tested, and the “logFC CDK6” value ([3]; experiment wp084) was −3.574, the “logFC CDK6” value ([3]; experiment wp137) was −2.866 and the “logFC of CDK6 (Q00534)” value ([3]; Experiment wp084) was −3.574. The “logFC of CDK6 (Q00534)” value ([3]; Experiment wp137) was −2.866, the logFC [4] was −0.3767 and the “logFC PDK1” value [4] was −0.3767. The “logFC CDK4 (P11802)” value ([5]; experiment wp084) was −2.162, the “logFC CDK4 (P11802)” value ([5]; experiment wp137) was −2.118 and the “logFC of WEE1” value ([6]; experiment wp084) was −0.5774. The “logFC of WEE1” value ([6]; experiment wp137) was −0.6759, the “logFC WEE1 (P30291-1)” value ([6]; experiment wp084) was −0.5774 and the “logFC WEE1 (P30291-1)” value ([6]; experiment wp137) was −0.6759.

With `CS(=O)(=O)c1ccc(-c2cccn3nc(Nc4cccc(N5CCN(CCCCCCNC(=O)COc6cccc7c6C(=O)N(C6CCC(=O)NC6=O)C7=O)CC5)c4)nc23)cc1` (stereo not drawn) [JWG.120] the “logFC AURKA (O14965)” value ([7]; experiment wp134) was −1.562, the “logFC AAK1” value ([8]; AAK1 (Q2M218-1), down) was −0.3362 and the “logFC AAK1” value ([8]; AAK1, accession Q2M218-1, direction of change down) was −0.3362.

In the case of `CC(=O)c1c(C)c2cnc(Nc3ccc(N4CCN(CCCCNC(=O)CNc5cccc6c5C(=O)N(C5CCC(=O)NC5=O)C6=O)CC4)cn3)nc2n(C2CCCC2)c1=O` (stereo not drawn) [BSJ.01.147], the “logFC CDK4 (P11802)” value ([5]; experiment wp005) is reported as −1.415, the “logFC CDK4 (P11802)” value ([5]; experiment wp084) is reported as −1.8 and the “logFC of WEE1” value ([6]; experiment wp084) is reported as −0.5617. The “logFC WEE1 (P30291-1)” value ([6]; experiment wp005) was −0.447 and the “logFC WEE1 (P30291-1)” value ([6]; experiment wp084) was −0.5617.

With `CN1c2ccccc2C(=O)Nc2cnc(Nc3ccc(N4CCN(C(=O)CCOCCNc5cccc6c5C(=O)N(C5CCC(=O)NC5=O)C6=O)CC4)cc3)nc21` (stereo not drawn) [ZNL.03.127] the “logFC TNK2 (Q07912-3)” value ([1]; Experiment wp149, direction down) was −0.8778, the logFC ([1]; TNK2 (Q07912-3), experiment wp149, direction down) was −0.8778 and the logFC [9] was −0.4605. The “logFC STK17A” value [9] was −0.4605, the “logFC LIMK2” value ([10]; LIMK2 (P53671), experiment wp149, down) was −0.3944 and the “logFC of LIMK2” value ([10]; experiment wp149) was −0.3944. The “logFC BLK” value ([11]; BLK (P51451), direction down, experiment wp149) was −0.5024, the “logFC of BLK (P51451)” value ([11]; Experiment wp149) was −0.5024 and the “logFC LIMK1” value ([12]; direction down) was −0.4764. For the same molecule, the “logFC LIMK1” value ([12]; down) was −0.4764.

In the case of `COc1cc(Nc2ncc3c(n2)-c2ccc(Cl)cc2C(c2c(F)cccc2OC)=NC3)ccc1C(=O)NCCCOCCOCCOCCCNC(=O)COc1cccc2c1C(=O)N(C1CCC(=O)NC1=O)C2=O` (stereo not drawn) [dAURK.4], the logFC [1, 16] is reported as −0.3932, the “logFC AURKB” value [1, 16] is reported as −0.3932 and the “logFC AURKA (O14965)” value ([7]; experiment wp080) is reported as −1.055.

In the case of `Cc1nc(Nc2ncc(C(=O)Nc3c(C)cccc3Cl)s2)cc(N2CCN(CC(=O)NCCCCNC(=O)COc3cccc4c3C(=O)N(C3CCC(=O)NC3=O)C4=O)CC2)n1` (stereo not drawn) [DB.3.291], the “logFC of CSK” value ([13]; Accession P41240) is reported as −2.257, the “logFC CSK” value ([13]; CSK (P41240), down) is reported as −2.257 and the “logFC of BLK” value ([11]; BLK P51451, experiment wp045) is reported as −0.5857. The “logFC of BLK (P51451)” value ([11]; Experiment wp045) was −0.5857, the “logFC WEE1 (P30291-1)” value ([6]; experiment wp045) was −0.4161 and the logFC ([14]; ABL2 (P42684) protein abundance, degrader vs DMSO, down) was −0.3739. The “logFC ABL2 (P42684)” value ([14]; Experiment wp045) was −0.3739.

With `CC(=O)c1c(C)c2cnc(Nc3ccc(N4CCN(CC(=O)NCCOCCOCCOCCNc5cccc6c5C(=O)N(C5CCC(=O)NC5=O)C6=O)CC4)cn3)nc2n(C2CCCC2)c1=O` (stereo not drawn) [YKL.6.102] the “logFC CDK4 (P11802)” value ([5]; experiment wp005) was −0.642 and the “logFC WEE1 (P30291-1)” value ([6]; experiment wp005) was −0.3649.

For `COc1cc(C)c(Sc2cnc(NC(=O)c3ccc(N4CCN(CCCCCCCNC(=O)COc5cccc6c5C(=O)N(C5CCC(=O)NC5=O)C6=O)CC4)cc3)s2)cc1C(=O)N1CCN(C(C)=O)CC1` (stereo not drawn) [BSJ.05.037], the “logFC of LIMK2” value ([10]; experiment wp134) was −0.4981 and the “logFC ITK (Q08881)” value [15] was −1.816.
